Experimental data: US20180250321A1, “COMPOSITIONS AND METHODS FOR RESTORING THE IMMUNE SYSTEM” (ORPHEUS THERAPEUTICS, INC., priority 2017, published 2018)

Key:
NKT cells [1] = conditions: cited from earlier work
NKT cells [2] = experiment: IFNγ production in mice injected with glycolipid in the presence or absence of GD3 (FIG. 18); assay type: in vivo, wild-type C57BL/6 mice; conditions: C57BL/6 mice
Procedure: OT-0010 is effective at restoring NKT cell function when wild-type C57BL/6 mice were injected intravenously with either αGalCer (KRN7000) or OT-0010 in the presence or absence of GD3.
In addition, the glycolipids of the present invention are able to fully restore IFN-γ levels, and cause a restoration of NKT cells to a Th-1 response profile (FIG. 18). […] When α-GalCer is administered at a dosage of 3 μgm, only 50% NKT cell function is restored (FIG. 25). While not wishing to be bound by theory, the reason why the glycolipids of the present invention are able to restore NKT cells to a Th-1 response profile is because these glycolipids bind more strongly to CD1d. From a thermodynamic perspective, it is impossible for GD3 to displace these glycolipids from CD1d. […] Again, while not wishing to be bound by theory, it is believed that the glycolipids of the present invention bind more strongly to CD1d due to the incorporation of the -phenyl ring to the distal end of the aliphatic carbon chain attached to the amide group connected to the C1 glycoside linkage of the galactose sugar moiety. The terminal fluorine, —OMe, or —CF3 further enhance the binding of the glycolipids of the present invention to CD1d. The results disclosed in FIG. 18 are unexpected.

Compound	α-GalCer-induced cytokine production in vivo (IFN-γ, IL-4, IL-12) (NKT cells [1]; 1 μg α-GalCer intravenously with or without GD3, serum ELISA)	IFN-γ production by NKT cells (NKT cells [1]; FIG. 25, effect of GD3)	IFNγ production (NKT cells [2]; substance alone, intravenous)	restoration of IFN-γ levels (NKT cells [1]; FIG. 25, in the presence of GD3)	NKT cell function restored (NKT cells [1]; dosage of 3 μgm, in the presence of GD3, FIG. 25)	IFNγ production (NKT cells [2]; glycolipid + GD3, intravenous)
Ganglioside D3 [GD3]	inhibits	dramatic decrease in IFN-γ production	Inhibition of IFNγ production			
CCCCCCCCCCCCCCCCCCCCCCCCCC(=O)N[C@@H](CO[C@H]1O[C@H](CO)[C@H](O)[C@H](O)[C@H]1O)[C@H](O)[C@H](O)CCCCCCCCCCCCCC [α-GalCer]				does not restore IFN-γ levels	50%	Inhibition of IFNγ production
